Assay results: patent US6498182B2, “Compounds” (Biovitrum AB, priority 2000, dated 2002)

Molecular target: T1, Human PTP1B (Homo sapiens, UniProt P18031)
T1 construct: Human PTP1B (amino acid residues 1-298, cloned from a human placental library); made in house; host or cells: E. coli BL21(DE3)
T1 sequence (P18031 1-298): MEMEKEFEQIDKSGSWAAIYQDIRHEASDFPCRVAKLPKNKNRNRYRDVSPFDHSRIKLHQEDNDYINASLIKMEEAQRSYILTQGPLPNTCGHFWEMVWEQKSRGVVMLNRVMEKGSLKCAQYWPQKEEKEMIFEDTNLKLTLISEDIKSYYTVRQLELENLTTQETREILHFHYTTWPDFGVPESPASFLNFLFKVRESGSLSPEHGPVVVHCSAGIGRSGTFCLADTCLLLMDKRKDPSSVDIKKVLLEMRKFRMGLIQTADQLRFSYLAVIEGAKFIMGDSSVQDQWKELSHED
Test: PTP1B activity, pNPP substrate, 96-well plate
Assay type: biochemical
Details: 2 mM, control wells
Procedure: Human PTP1B (amino acid residues 1-298, cloned from a human placental library), without the GST tag and thrombin cleavage site, was inserted into a pMB replicon and transformed into E. coli BL21(DE3), a strain containing a chromosomal copy of the gene for T7 RNA polymerase under control of a lacUV5 promoter. Expression of PTP1B was induced with isopropyl thiogalactose and cells were lysed in lysis buffer comprising 50 mM Tris-HCl pH 7.5, 10% glycerol, 1 mM EDTA, 3 mM DTT, 3 mM MgCl2, and 0.2 mg/ml lysozyme with 1 mg/ml DNAse I. The soluble protein was purified by ion exchange, hydrophobic interaction and gel exclusion chromatography for use in assays to identify PTP1B inhibitors. The plasmid pGEX2K-SHP2 which encoded the catalytic domain of human SHP-2 (residues 252-529) was used to transform E. coli cells. […]
Human PTP1B activity was measured using p-nitrophenol phosphate (pNPP) as substrate in a 96-well microtiter plate format. An assay pH of 7.2 is used for standard assays (measured extinction coefficient=9800 at pH 7.2).
Standard assays were conducted at room temperature in a total volume of 0.2 ml that contains Hepes buffer (50 mM, pH 7.2), NaCl (50 mM), EDTA (1 mM), DTT (1 mM), bovine serum albumin (1 mg/ml), pNPP (1.25 mM) and PTP1B (500 ng/ml, 13.5 nM). […] The OD^405 was subsequently measured. […]

inhibition of PTP1B-catalyzed hydrolysis of pNPP: completely
Compound: [Na+].[Na+].[Na+].[O]=[V]([O-])([O-])[O-] [sodium orthovanadate]
